Results published in ChEMBL document CHEMBL5247616, “Discovery of a NADPH oxidase inhibitor, (E)-3-cyclohexyl-5-(4-((2-hydroxyethyl)(methyl)amino)benzylidene)-1-methyl-2-thioxoimidazolidin-4-oneone, as a novel therapeutic for Parkinson's disease” (Eur J Med Chem, 2022).
The source made the active and inactive calls. No cut-off for these calls is given here.

Key:
[1] = Elimination rate constant in rat at 2 mg/kg, iv measured after 24 hrs by HPLC-UV method; assay type: ADME, organism-based; settings: in vivo, read-out: Ke (converted)
[2] = Toxicity in male ICR mouse assessed as survival rate at 300 mg/kg, iv administered as single dose for 14 days; assay type: organism-based; settings: in vivo, time 14 day
[3] = Elimination rate constant in rat at 10 mg/kg, po measured after 24 hrs by HPLC-UV method; assay type: ADME, organism-based; settings: in vivo, read-out: Ke (converted)
BV-2 [4] = experiment: Inhibition of LPS-induced ROS production in mouse BV-2 cells preincubated for 30 mins followed by LPS addition and measured at 10 sec interval for 15 mins by lucigenin based chemiluminescence assay; assay type: functional, cell-based; settings: dose 1-10000 nM, time 45.0 min
[5] = Clearance in rat at 2 mg/kg, iv measured after 24 hrs by HPLC-UV method; assay type: ADME, organism-based; settings: in vivo
BV-2 [6] = experiment: Inhibition of cell migration in LPS-induced mouse BV-2 cells at 10 uM incubated for 24 hrs by crystal violet staining based transwell assay; assay type: functional
BV-2 [7] = experiment: Antiinflammatory activity in mouse BV-2 cells assessed as suppression of LPS-stimulated iNOS production at 10 uM measured after 24 hrs by qPCR analysis; assay type: functional, cell-based
[8] = Apparent volume of distribution in rat at 20 mg/kg, po measured after 24 hrs by HPLC-UV method; assay type: ADME, organism-based; settings: in vivo
[9] = Toxicity in male ICR mouse assessed as survival rate at 100 mg/kg, iv administered as single dose for 14 days; assay type: organism-based; settings: in vivo, time 14 day
[10] = Toxicity in male ICR mouse assessed as survival rate at 30 mg/kg, iv administered as single dose for 14 days; assay type: organism-based; settings: in vivo, time 14 day
[11] = Toxicity in female ICR mouse assessed as survival rate at 100 mg/kg, iv administered as single dose for 14 days; assay type: organism-based; settings: in vivo, time 14 day
[12] = AUClast in rat at 20 mg/kg, po measured after 24 hrs by HPLC-UV method; assay type: ADME, organism-based; design: dose 20 mg/kg, time 24 hrs, route po; settings: in vivo
[13] = Toxicity in male ICR mouse assessed as survival rate at 100 mg/kg, po administered as single dose for 14 days; assay type: organism-based; settings: in vivo, time 14 day
[14] = AUClast in rat at 10 mg/kg, po measured after 24 hrs by HPLC-UV method; assay type: ADME, organism-based; design: dose 10 mg/kg, time 24 hrs, route po; settings: in vivo
[15] = Toxicity in female ICR mouse assessed as survival rate at 300 mg/kg, po administered as single dose for 14 days; assay type: organism-based; settings: in vivo, time 14 day
[16] = Tmax in rat at 20 mg/kg, po measured after 24 hrs by HPLC-UV method; assay type: ADME, organism-based; settings: in vivo
[17] = Elimination rate constant in rat at 20 mg/kg, po measured after 24 hrs by HPLC-UV method; assay type: ADME, organism-based; settings: in vivo, read-out: Ke (converted)
[18] = Oral bioavailability in rat at 10 mg/kg measured after 24 hrs by HPLC-UV method; assay type: ADME, organism-based; settings: in vivo
[19] = Permeability coefficient of the compound across blood brain barrier at pH 7.4 incubated for 4 hrs by PAMPA assay; assay type: ADME; settings: read-out: permeability
[20] = Cmax in rat plasma at 10 mg/kg, po measured after 24 hrs by HPLC-UV method; assay type: ADME, organism-based; design: time 24 hrs, dose 10 mg/kg, route po
[21] = Metabolic stability in human liver microsomes assessed as parent compound remaining preincubated for 5 mins followed by NADPH addition and measured after 30 mins by LC-MS/MS analysis; assay type: ADME, Microsome; settings: read-out: Stability
[22] = Toxicity in female ICR mouse assessed as survival rate at 100 mg/kg, po administered as single dose for 14 days; assay type: organism-based; settings: in vivo, time 14 day
[23] = Tmax in rat at 10 mg/kg, po measured after 24 hrs by HPLC-UV method; assay type: ADME, organism-based; settings: in vivo
BV-2 [24] = experiment: Antiinflammatory activity in mouse BV-2 cells assessed as suppression of LPS-stimulated TNFalpha production at 10 uM measured after 24 hrs by qPCR analysis; assay type: functional, cell-based
[25] = Dose normalized clearance in rat at 20 mg/kg, po measured after 24 hrs by HPLC-UV method; assay type: ADME, organism-based; settings: in vivo
Mus musculus [26] = experiment: Antineuroinflammatory activity against MPTP induced parkinson's disease in C57BL/6 mouse model assessed as decrease in IbA1+ microglial cells in striatum at 10 mg/kg, po administered for 8 days by immunohistochemistry analysis; assay type: functional, organism-based; settings: time 8.0 day
Mus musculus [27] = experiment: Antineuroinflammatory activity against MPTP induced parkinson's disease in C57BL/6 mouse model assessed as decrease in IbA1+ microglial cells in substantia nigra at 10 mg/kg, po administered for 8 days by immunohistochemistry analysis; assay type: functional, organism-based; settings: time 8.0 day
Mus musculus [28] = experiment: Antineuroinflammatory activity against MPTP induced parkinson's disease in C57BL/6 mouse model assessed as […] tyrosine hydroxylase positive dopaminergic neuron in substantia nigra at 10 mg/kg, po administered for 8 days by immunohistochemistry analysis; assay type: functional, organism-based; settings: time 8.0 day
[29] = Cmax in rat plasma at 20 mg/kg, po measured after 24 hrs by HPLC-UV method; assay type: ADME, organism-based; design: time 24 hrs, dose 20 mg/kg, route po
[30] = Toxicity in male ICR mouse assessed as survival rate at 300 mg/kg, po administered as single dose for 14 days; assay type: organism-based; settings: in vivo, time 14 day
[31] = AUClast in rat at 2 mg/kg, iv measured after 24 hrs by HPLC-UV method; assay type: ADME, organism-based; design: time 24 hrs, dose 2 mg/kg, route iv; settings: in vivo
[32] = Toxicity in female ICR mouse assessed as survival rate at 30 mg/kg, iv administered as single dose for 14 days; assay type: organism-based; settings: in vivo, time 14 day
[33] = Elimination half life in rat at 10 mg/kg, po measured after 24 hrs by HPLC-UV method; assay type: ADME, organism-based; settings: in vivo, read-out: beta t1/2 (converted)
[34] = C0 in rat plasma at 2 mg/kg, iv measured after 24 hrs by HPLC-UV method; assay type: ADME, organism-based
[35] = Toxicity in male ICR mouse assessed as survival rate at 1000 mg/kg, po administered as single dose for 14 days; assay type: organism-based; settings: in vivo, time 14 day
[36] = Toxicity in male ICR mouse assessed as survival rate at 10 mg/kg, iv administered as single dose for 14 days; assay type: organism-based; settings: in vivo, time 14 day
[37] = Toxicity in female ICR mouse assessed as survival rate at 10 mg/kg, iv administered as single dose for 14 days; assay type: organism-based; settings: in vivo, time 14 day
[38] = Elimination half life in rat at 20 mg/kg, po measured after 24 hrs by HPLC-UV method; assay type: ADME, organism-based; settings: in vivo, read-out: beta t1/2 (converted)
[39] = Toxicity in female ICR mouse assessed as survival rate at 1000 mg/kg, po administered as single dose for 14 days; assay type: organism-based; settings: in vivo, time 14 day
[40] = Apparent volume of distribution in rat at 10 mg/kg, po measured after 24 hrs by HPLC-UV method; assay type: ADME, organism-based; settings: in vivo
BV-2 [41] = experiment: Antiinflammatory activity in mouse BV-2 cells assessed as suppression of LPS-stimulated IL1beta production at 10 uM measured after 24 hrs by qPCR analysis; assay type: functional, cell-based
[42] = Toxicity in female ICR mouse assessed as survival rate at 300 mg/kg, iv administered as single dose for 14 days; assay type: organism-based; settings: in vivo, time 14 day
[43] = Oral bioavailability in rat at 20 mg/kg measured after 24 hrs by HPLC-UV method; assay type: ADME, organism-based; settings: in vivo
[44] = Elimination half life in rat at 2 mg/kg, iv measured after 24 hrs by HPLC-UV method; assay type: ADME, organism-based; settings: in vivo, read-out: beta t1/2 (converted)
[45] = Dose normalized clearance in rat at 10 mg/kg, po measured after 24 hrs by HPLC-UV method; assay type: ADME, organism-based; settings: in vivo, read-out: Dose normalized clearance (converted)
[46] = Volume of distribution in rat at 2 mg/kg, iv measured after 24 hrs by HPLC-UV method; assay type: ADME, organism-based; settings: in vivo
Mus musculus [47] = experiment: Antineuroinflammatory activity against MPTP induced parkinson's disease in C57BL/6 mouse model assessed as […] tyrosine hydroxylase positive dopaminergic neuron in striatum at 10 mg/kg, po administered for 8 days by immunohistochemistry analysis; assay type: functional, organism-based; settings: time 8.0 day

CN1C(=S)N(C2CCCCC2)C(=O)/C1=C\c1ccc(N(C)CCO)cc1
k el at 24 h [1]: 0.000367 s⁻¹
survival at 336 h [2]: 100%
k el at 24 h [3]: 4.72e-05 s⁻¹
inhibition (BV-2 [4]): Dose-Dependent Effect
clearance [5]: 3.62 mL/min
inhibition (BV-2 [6]): Active
Activity (BV-2 [7]): Active
Vd/F [8]: 1.82 L
survival at 336 h [9]: 100%
survival at 336 h [10]: 100%
survival at 336 h [11]: 100%
AUC(0-t) at 24 h [12]: 4160 ng·h/mL
survival at 336 h [13]: 100%
AUC(0-t) at 24 h [14]: 1310 ng·h/mL
survival at 336 h [15]: 100%
Tmax [16]: 40.2 min
k el at 24 h [17]: 4.42e-05 s⁻¹
bioavailability [18]: 56%
Papp at 4 h [19]: 13.6 ×10⁻⁶ cm/s
Cmax [20]: 609 ng/mL
remaining at 0.5 h [21]: 76.3%
survival at 336 h [22]: 100%
Tmax [23]: 4.98 min
Activity (BV-2 [24]): Active
Dose normalized clearance [25]: 0.217 L/h
Activity (Mus musculus [26]): Active
Activity (Mus musculus [27]): Active
Activity (Mus musculus [28]): Active
Cmax [29]: 783 ng/mL
survival at 336 h [30]: 100%
AUC(0-t) at 24 h [31]: 468 ng·h/mL
survival at 336 h [32]: 100%
half-life [33]: 301 min
C0 at 24 h [34]: 1700 ng/mL
survival at 336 h [35]: 100%
survival at 336 h [36]: 100%
survival at 336 h [37]: 100%
half-life [38]: 368 min
survival at 336 h [39]: 100%
Vd/F [40]: 1.99 L
Activity (BV-2 [41]): Active
survival at 336 h [42]: 100%
bioavailability [43]: 88.9%
half-life [44]: 47.4 min
CL/F [45]: 5.68 mL/min
Vd [46]: 0.211 L
Activity (Mus musculus [47]): Active
